From patent US8173788B2, “Peptide having ability to activate cancer-related gene” (priority 2005, dated 2012)
Where no end group is shown, it is not given here.

Key:
Skin fibroblast cell = test: RT-PCR gene pattern change after 7 hr peptide treatment, skin fibroblast cell; format: cell-based; settings: 11-amino acid primer (full sequence), skin fibroblast sample
Method: (§1) In order to examine influences at a gene level of the peptide on normal cells, RT-PCR was performed by adding the peptide artificially synthesized in Example 3 to the normal cells.
(§2) (1) Normal cells were treated with the artificially synthesized peptide for 7 hr as follows:
(§3) Then, total RNA was extracted from the above-treated normal cells, untreated normal cells, and squamous-cell carcinoma cells by using an RNA extraction kit (QIAGEN). The numbers of the treated cells and the untreated cells were the same.
(§4) Reverse transcription was performed by using 30 μg of each extracted total RNA to generate cDNA pools.
(§5) PCR was conducted using each of the cDNA pools as templates.
(§6) The condition for the PCR was as follows:
(§7) (2) Each of the PCR products was applied to electrophoresis and detected by using a fluorescence label.

[1] = system: rejection in skin transplantation; test: Skin transplantation test, C57Black/6N skin to back of BALB/c mouse; format: in vivo; settings: 50 μg peptide/0.1 ml/mouse subcutaneously
Method: Then, the cellular immunity-inhibition activity of the peptide was examined from the viewpoint of activity for preventing rejection in skin transplantation.
The peptide of the present invention was administered to mice who have received skin transplantation according to the schedule shown in Table 6.

[2] = system: Pancreatic epithelial cells; test: RT-PCR gene pattern change after 7 hr peptide treatment, pancreatic epithelial cells; format: cell-based; settings: pancreatic epithelial sample
Method: as §1, §2, §3, §4, §5, §6, §7

[3] = system: peripheral blood monocytes; test: Effect of the artificially synthesized peptide on total mRNA amount of peripheral blood monocytes; format: cell-based, human; set-up: reduction ratio: concentration or dose not given beside the values; settings: peptide 7 hr; for post total RNA: 1 × 10^7 monocytes
Method: (b) The peptide obtained in Example 3 was added to a culture medium (10 to 100 μg peptide/1×10^7 monocytes) for human normal peripheral blood monocytes extracted from subjects shown in Table 5 below, and they were cocultured for 7 hr. Then, total mRNA was extracted from the monocytes, and the amount of the total mRNA was measured and compared to that of the total mRNA before the treatment with the peptide.

[4] = system: peripheral blood monocytes; test: RT-PCR gene pattern change after 7 hr peptide treatment, peripheral blood monocytes; format: cell-based, human
Method: as §1, §2, §3, §4, §5, §6, §7

[5] = system: human normal peripheral blood monocyte; test: Influence of the artificially synthesized peptide on normal cell genes: coculture 7 hr, DNA chip system (Clontech), about 55000 human genes (Table 4); format: cell-based; settings: monocytes, 7 hr
Method: (a) The peptide obtained in Example 3 was added to a human normal peripheral blood monocyte culture system (10 to 100 μg peptide/1×10^6 to 1×10^7 monocytes), and they were cocultured for 7 hr. Then, mRNA was extracted from the monocytes and was applied to analysis for up-regulation and down-regulation in respect to about 55000 human genes by using DNA chip system (Clontech).

Kidney mesangium cell = test: RT-PCR gene pattern change after 7 hr peptide treatment, kidney mesangium cell; format: cell-based; settings: 11-amino acid primer (full sequence), kidney mesangium sample
Method: as §1, §2, §3, §4, §5, §6, §7

Normal lymphocytes = test: Exhaustive gene analysis of 55000 genes by DNA chip system (Codelink System); format: cell-based; settings: normal lymphocytes treated vs untreated, Codelink slide 55000 genes
Method: Characteristics of the peptide of the present invention were clarified by conducting the analysis described below in order to examine effects of the peptide on gene expression of normal cells.
Normal lymphocytes were treated with the peptide of the present invention as in Examples 4 and 5, and the gene expression was compared to that of untreated lymphocytes by using a DNA chip system (Codelink System). In this examination, cRNA derived from bacteria was used as a positive control. Total RNA was extracted by using the QIAGEN RNA extraction kit used in Example 5. The total RNA (5 to 10 μg) was subjected to reverse transcription using an oligo-dT primer having a T7 RNA polymerase promoter region as a reverse primer to generate a pool of cDNAs complementary to the mRNAs. The condition for the reverse transcription was the same as that in Example 5. […] The amount of the cRNA was measured with a spectrophotometer to confirm at least 10 μg of the cRNA. […]
The hybridization chamber was removed and the plate was washed at 46° C. for 1 hr. The hybridization was detected with Cy5-streptavidin (1:500 dilution, at room temperature for 30 min). […]
(5) The result was analyzed by exclusive software for the Codelink analysis. […]

[6] = subject eight, healthy subject (smoker)
[7] = subject five, healthy subject (side-stream smoke)
[8] = subject four, cancer patient received chemotherapy and radiotherapy
[9] = subject one, healthy subject (side-stream smoke)
[10] = subject seven, healthy subject (smoker)
[11] = subject two, healthy subject (side-stream smoke)

Q: For “QPQFGRRMESK [artificially synthesized peptide]”, which “gene band pattern by PCR before and after peptide treatment” value (“gene band pattern” below) (Skin fibroblast cell) is on record?
A: a difference in the band patterns was observed

Q: What about the “delay of skin rejection versus control” value ([1]; intermittent) of the same sequence?
A: 5 days

Q: What about the “rejection in skin transplantation / skin graft survival” value ([1]; intermittent) of the same sequence?
A: the rejection in the skin transplantation was suppressed and skin graft survival was prolonged

Q: What about the “skin rejection occurred, days after the transplantation” value ([1]; intermittent, 6 mice, control 7 days) of the same sequence?
A: 12 days

Q: And the “survival of the transplanted skin of one mouse after the transplantation” value ([1]; one mouse)?
A: 14 days

Q: What about the “gene band pattern” value ([2]; 7-amino acid primer (partial sequence)) of the same sequence?
A: a difference in the band patterns was observed

Q: And the “gene band pattern” value ([2]; 11-amino acid primer (full sequence))?
A: a difference in a position having a high concentration was observed

Q: And the “post total RNA” value ([3]; subject eight, healthy subject (smoker), pre 45.875 μg/ml)?
A: 0.958 µg/mL

Q: What about the post/pre [3, 6] of the same sequence?
A: 2%

Q: And the reduction ratio [3, 6]?
A: 98%

Q: And the “post total RNA” value ([3]; subject five, healthy subject (side-stream smoke), pre 58.076 μg/ml)?
A: 19.551 µg/mL

Q: And the post/pre [3, 7]?
A: 33.6%

Q: What about the reduction ratio [3, 7] of the same sequence?
A: 66.4%

Q: What about the “post total RNA” value ([3]; subject four, cancer patient received chemotherapy and radiotherapy, pre 8.078 μg/ml) of the same sequence?
A: 1.757 µg/mL

Q: And the post/pre [3, 8]?
A: 21.7%

Q: And the reduction ratio [3, 8]?
A: 78.3%

Q: What about the “post total RNA” value ([3]; subject one, healthy subject (side-stream smoke), pre 69.622 μg/ml) of the same sequence?
A: 7.735 µg/mL

Q: And the post/pre [3, 9]?
A: 11.1%

Q: And the reduction ratio [3, 9]?
A: 88.9%

Q: And the “post total RNA” value ([3]; subject seven, healthy subject (smoker), pre 20.779 μg/ml)?
A: 9.188 µg/mL

Q: What about the post/pre [3, 10] of the same sequence?
A: 44.2%

Q: And the reduction ratio [3, 10]?
A: 55.8%

Q: What about the “post total RNA” value ([3]; subject six, healthy subject, pre 52.318 μg/ml) of the same sequence?
A: 17.681 µg/mL

Q: What about the post/pre ([3]; subject six, healthy subject) of the same sequence?
A: 33.7%

Q: What about the reduction ratio ([3]; subject six, healthy subject) of the same sequence?
A: 66.3%

Q: And the “post total RNA” value ([3]; subject three, healthy subject, pre 61.145 μg/ml)?
A: 16.562 µg/mL

Q: And the post/pre ([3]; subject three, healthy subject)?
A: 27%

Q: What about the reduction ratio ([3]; subject three, healthy subject) of the same sequence?
A: 73%

Q: What about the “post total RNA” value ([3]; subject two, healthy subject (side-stream smoke), pre 66.804 μg/ml) of the same sequence?
A: 14.742 µg/mL

Q: What about the post/pre [3, 11] of the same sequence?
A: 22%

Q: What about the reduction ratio [3, 11] of the same sequence?
A: 78%

Q: And the “gene band pattern” value ([4]; 11-amino acid primer (full sequence), peripheral blood sample (H.S.), 7 hr)?
A: a difference in the band patterns was observed

Q: And the “gene pattern change by PCR after peptide treatment” value ([4]; 11-amino acid primer, sample of lanes 2 and 3 of FIG. 2B, healthy young man in twenties)?
A: gene mutation was hardly induced

Q: What about the “Expression of TNF” value [5] of the same sequence?
A: not enhanced

Q: What about the “expression of cell growth factor such as a platelet-derived growth factor” value [5] of the same sequence?
A: enhanced

Q: What about the “expression of genes relating to anti-tumor immunity” value [5] of the same sequence?
A: highly suppressed

Q: And the “expression of most of important factors as an operating factor for the humoral immunity mechanism” value [5]?
A: enhanced

Q: And the “Expression of a gene relating to inhibition of metastasis of breast cancer, suppressed to” value ([5]; fraction of baseline)?
A: 1/60

Q: And the “expression of RAS suppressor protein gene, suppressed to” value ([5]; fraction of baseline)?
A: 1/43

Q: And the “expression of a gene relating to inhibition of leukemia, suppressed to” value ([5]; fraction of baseline)?
A: 1/43

Q: What about the “gene band pattern” value (Kidney mesangium cell) of the same sequence?
A: a difference in a position having a high concentration was observed

Q: And the “expression status of cancer-related genes” value (Normal lymphocytes)?
A: Cancer-inducing expression status of cancer-related genes was observed
